Like-named read-outs stand apart in the source and are kept apart here.
Test system: Phytophthora infestans
Assay type: cell-based
Conditions: MTP, absorption 405 nm, 7 days after inoculation, 18° C

Row | Compound | Observed efficacy (0.016 ppm) [%] | Observed efficacy (0.063 ppm) [%] | Observed efficacy (0.25 ppm) [%]
1 | O=C(NCCc1ncc(C(F)(F)F)cc1Cl)c1ccccc1C(F)(F)F [Fluopyram] | 5 | 5 | –
2 | CCCCCCCCc1c(CC)nc2ncnn2c1N [5-Ethyl-6-octyl-[1,2,4]triazolo[1,5-a]pyrimidin-7-ylamine] | – | – | 31
